# Entries after “also recorded” stand apart in the source; their conditions may differ. No end group written: not given here.
# What was measured:
# [1] = In-vitro effect of alteplase (rt-PA) on nerinetide content in rat plasma (HPLC); type: in vitro ADME; conditions: 65 ug/ml nerinetide, 37 C, alteplase added over 60 minutes (22.5 ug/ml, 3 times and 6 times)
# Experimental: A. LC/MS spectrum of nerinetide after incubation with plasmin in PBS. 10 uL aliquots of nerinetide (18 mg/mL) and plasmin (1 mg/mL) were incubated in 500 uL tubes of phosphate-buffered saline at 37 C for 5 min and the reaction stopped by cooling to −80C until tested. The various peaks correspond to the indicated fragments. Insert: Predicted trypsin cleavage sites and actual cleavage sites. (B,C) In-vitro effect of rt-PA on nerinetide content in rat (B) and human (C) plasma. Nerinetide was spiked into the plasma samples at t=0 at a concentration of 65 ug/ml, whereas alteplase (rt-PA) was administered as a 60 min infusion at the indicated concentration (D, E) In-vivo effect of the simultaneous administration of nerinetide and rt-PA on Cmax (D) and AUC (E) in the rat. The nerinetide bolus and alteplase (60 min infusion) were started simultaneously through two separate intravenous lines. Symbols represent mean±SD.
# The concentration of 65 ug/ml of nerinetide represents the theoretical peak concentration in a 75 kg person receiving 2.6 mg/kg dose as a bolus. Alteplase was added over 60 minutes to simulate the clinical dosing approach.
# [2] = test system: transient middle cerebral artery occlusion (tMCAO); assay: Dose-response study of nerinetide in transient middle cerebral artery occlusion; type: in vivo; conditions: rat tMCAo
# Experimental: FIGS. 9A-B: Nerinetide is effective over a dosage range of at least 0.025-25 mg/kg in a rat tMCAo model in (A) reducing infarction size and (B) reducing neurologic deficit.
# The cleavage of full-length nerinetide by high dose alteplase was incomplete, raising the possibility that some active drug could still remain to achieve neuroprotection. This was supported in rats by a dose-response study of nerinetide in a model of transient middle cerebral artery occlusion (tMCAO). Nerinetide and lodoxamide was administered to rats intravenously as a bolus injection, 60 minutes after tMCAo. […] Bars in A and represent mean±SD, with all individual data points plotted. […] Vehicle: PBS alone. Scrambled: ADA peptide incapable of binding PSD-95. Doses as low as 0.25 mg/kg produced a significant reduction in infarct volume (P=0.01) and an improvement in neurological function. Doses as low as 0.025 mg/kg were also effective. Doses up to at least 25 mg/kg were also effective with the highest efficacy being at about 15 mg/kg. The observed wide therapeutic range was attributable to nerinetide, and not to the mast cell degranulation inhibitor lodoxamide, which was present in all solutions to avoid potential hypotension due to histamine release.
# [3] = PK dose-separation study of nerinetide and alteplase in macaques; type: in vivo, cynomolgus macaques (Macaca fascicularis); conditions: macaque
# Experimental: We conducted further PK studies to probe the necessary dose-separation interval to mitigate degradation. These studies were conducted in cynomolgus macaques (Macaca fascicularis) to maximize their relevance to humans. Nerinetide was given as a 10-minute intravenous infusion at a dose of 2.6 mg/kg. This dosing regimen was neuroprotective in macaques exposed to stroke by LVO (Cook et al., Nature 483, 213-217 (2012)) and was used in both the Phase 2 ENACT trial (Lancet Neurol 11, 942-950 (2012)) and the ESCAPE-NA1 trial (Lancet 395, 878-887 (2020)). We examined the scenarios in which alteplase administration was started simultaneously with the nerinetide infusion start, at the end of the 10-minute nerinetide infusion, or 10 minutes after the end of nerinetide infusion. Alteplase (1 mg/kg) was administered through a separate intravenous line as a 10% bolus, followed by an infusion of the remaining 90% over 1 hour, as per its clinical use.
# [4] = test system: embolic middle cerebral artery occlusion (eMCAO)
# Experimental: Nerinetide (7.6 mg/kg) was administered as an intravenous bolus injection either 30 minutes before, or simultaneously with, the onset of a 60-minute infusion of rt-PA (5.4 mg/kg with a 10% bolus followed by 90% over 60 minutes). […] Experimental timeline. […] Hemispheric Infarct volume measurements 24 hours after eMCAo. […] Percentage of hemispheric brain swelling 24 hours after eMCAo and (D). Neurological scores 24 hours after eMCAo. Treatments were administered intravenously at the times indicated in (A). Bars represent mean±SD, with all individual data points plotted. Significant differences (in B) and (in C) are indicated with an asterisk when compared to the control group/nerinetide alone or with a number sign when compare to the thrombolytic agent (one-way ANOVA post hoc Tukey's correction for multiple comparisons test, *P<0.01 or #P <0.01, respectively) N=12-15 animals/group. Significant differences (in D) are indicated with an asterisk when compared to the control group/nerinetide alone or with a number sign when compare to the thrombolytic agent (Kruskal-Wallis analysis of variance on ranks with a post-hoc Dunn's correction for multiple comparisons test, *P<0.01 or #P<0.01, respectively).
# To test this, male Sprague-Dawley rats (10-12 weeks old; 270-310 g; Charles River, Montreal, QC, Canada) were subjected to embolic middle cerebral artery occlusion (eMCAO), produced by the introduction of an autologous blood thrombus into the middle cerebral artery. Reperfusion was achieved by treatment with intravenous alteplase at a total dose of 5.4 mg/kg beginning at 90 minutes after ischemia onset. Alteplase was administered using the human injection protocol in which 10% of the total dose is given as a bolus, with the remainder 90% of the dose being given over a 60-minute infusion. The dose of alteplase was 6 times the human dose, in anticipation that the rat fibrinolytic system may be less sensitive to human recombinant tPA. […] Nerinetide was administered either 30 minutes prior to, or concurrently with, the start of the alteplase administration (FIG. 7A) at a dose of 7.6 mg/kg. […] Infarct volumes, hemispheric swelling and neurological scores were evaluated at 24 hours.
# [5] = biological target: protein-protein interactions of PSD-95 with N-Methyl-D-Aspartate glutamate receptors (NMDARs); conditions: read-out: IC50 perturbing PSD-95 interaction with NMDARs; cited from earlier work
# [6] = biological target: protein-protein interactions of PSD-95 with neuronal nitric oxide synthase (nNOS) (Homo sapiens, UniProt P78352); conditions: read-out: IC50 perturbing PSD-95 interaction with nNOS; cited from earlier work
# protein-protein interactions of PSD-95 with neuronal nitric oxide synthase (nNOS), sequence (P78352 whole entry): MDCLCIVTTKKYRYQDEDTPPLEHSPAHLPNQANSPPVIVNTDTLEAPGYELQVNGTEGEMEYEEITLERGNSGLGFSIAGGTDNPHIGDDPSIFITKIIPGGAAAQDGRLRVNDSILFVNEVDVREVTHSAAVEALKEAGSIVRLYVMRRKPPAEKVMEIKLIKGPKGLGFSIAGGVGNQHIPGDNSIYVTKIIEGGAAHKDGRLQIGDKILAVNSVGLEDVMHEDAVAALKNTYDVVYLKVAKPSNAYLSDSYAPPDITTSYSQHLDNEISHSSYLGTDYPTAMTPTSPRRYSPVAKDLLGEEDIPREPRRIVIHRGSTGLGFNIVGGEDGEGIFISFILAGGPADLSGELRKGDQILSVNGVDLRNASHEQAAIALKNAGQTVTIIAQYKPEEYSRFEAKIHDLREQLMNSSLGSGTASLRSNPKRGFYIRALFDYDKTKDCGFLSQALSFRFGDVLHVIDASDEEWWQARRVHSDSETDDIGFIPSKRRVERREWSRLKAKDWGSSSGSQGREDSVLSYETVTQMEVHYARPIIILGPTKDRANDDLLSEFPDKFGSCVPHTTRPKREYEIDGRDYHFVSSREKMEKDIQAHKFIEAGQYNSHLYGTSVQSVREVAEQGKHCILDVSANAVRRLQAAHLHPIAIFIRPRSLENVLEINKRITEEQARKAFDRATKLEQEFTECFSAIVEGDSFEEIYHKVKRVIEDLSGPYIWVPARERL
# [7] = test system: patients with acute ischemic stroke (AIS) due to a large vessel arterial occlusion selected for endovascular thrombectomy; conditions: published primary trial result; cited from earlier work
# [8] = intravenous over 10 minutes; cited from earlier work
# [9] = alteplase started at the end of the 10-minute nerinetide infusion
# [10] = nerinetide 2.6 mg/kg 10-minute iv infusion, alteplase 1 mg/kg started simultaneously
# [11] = nerinetide alone 7.6 mg/kg, 60 minutes after eMCAO, 24 hours
# [12] = nerinetide at 60 minutes followed by alteplase 30 minutes later, 24 hours
sequence,measurement,setting,value
YGRKKRRQRRRKLSSIESDV [nerinetide],nerinetide content in rat plasma on addition of alteplase,[1],reduced the nerinetide content in rat plasma in a concentration-dependent manner
same,dose of highest efficacy,[2]; 24 hours,about 15 mg/kg
same,lowest dose also effective,"[2]; 24 hours, doses as low as",0.025 mg/kg
same,upper dose also effective,"[2]; 24 hours, doses up to at least",at least 25 mg/kg
same,dose producing significant reduction in infarct volume (P=0.01) and improvement in neurological function,"[2]; iv bolus with lodoxamide 60 minutes after tMCAo, 24 hours, doses as low as",0.25 mg/kg
same,effective dosage range (reducing infarction size and neurologic deficit),"[2]; iv bolus with lodoxamide 60 minutes after tMCAo, read 24 hours",0.025-25 mg/kg
same,degradation of Cmax or AUC of nerinetide by alteplase,[3]; alteplase 10 minutes after the end of the 10-min nerinetide infusion,eliminated degradation of Cmax or AUC by alteplase to within the margin of measurement error; also recorded: substantially reduces cleavage of nerinetide
same,reduction in the AUC of nerinetide,[3]; [9],32.3%
same,reduction of the Cmax of nerinetide,[3]; [9],23.1%
same,reduction in the AUC of nerinetide,[3]; [10],53.9%
same,reduction of the Cmax of nerinetide,[3]; [10],47.4%
same,beneficial effect of nerinetide on infarction volume,[4]; nerinetide administered concurrently with alteplase at 60 min after eMCAO,eliminated completely
same,infarction volume,[4]; [11],175±40 mm3
same,reduction of infarction volume,[4]; [11],59.2%
same,infarct volume reduction,[4]; nerinetide at 60 minutes followed by alteplase 30 minutes later,70%
same,hemispheric swelling,[4]; [12],reducing hemispheric swelling
same,neurological scores,[4]; [12],improving neurological scores
same,IC50,[5],1000 to 8000 nM
same,IC50,[6],~200 nM
same,"outcome in ESCAPE-NA1, nerinetide group that did not receive alteplase",[7],"improved functional independence, reduced mortality, and reduced infarct volume"
same,"outcome in ESCAPE-NA1, patients that received alteplase",[7],did not benefit
same,plasma half-life,[8],5 to 10 min
